# From PubChem BioAssay AID1963443 (Molecular Pharmacology Branch, DTP, NCI, 2024)
# System: MDA-MB-231 complex spheroids, growth inhibition
# Assay: Anticancer human tumor MDA-MB-231 cell line growth inhibition [Asc];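 further: spheroids exposed to compounds for 7 days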
# Conditions: for IC50: curve of first compound; for viability, T/C: stronger effect = lower value
# Method in brief: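 Complex solid-tumor spheroids incorporating human endothelial and mesenchymal stem cells received single agents or combinations over half-log dilution ranges anchored to clinical Cmax.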
# [1] = second compound 0.03 µM, first compound 0.0316 µM
# [2] = second compound 0.03 µM, first compound 0.1 µM
# [3] = second compound 0.03 µM, first compound 0.316 µM
# [4] = second compound 0.03 µM, first compound 1 µM
# [5] = second compound 0.0949 µM, first compound 0.0316 µM
# [6] = second compound 0.0949 µM, first compound 0.1 µM
# [7] = second compound 0.0949 µM, first compound 0.316 µM
# [8] = second compound 0.0949 µM, first compound 1 µM
# [9] = second compound 0.3 µM, first compound 0.0316 µM
# [10] = second compound 0.3 µM, first compound 0.1 µM
# [11] = second compound 0.3 µM, first compound 0.316 µM
# [12] = second compound 0.3 µM, first compound 1 µM
# [13] = second compound 0.949 µM, first compound 0.0316 µM
# [14] = second compound 0.949 µM, first compound 0.1 µM
# [15] = second compound 0.949 µM, first compound 0.316 µM
# [16] = second compound 0.949 µM, first compound 1 µM
# [17] = second compound 3 µM, first compound 0.0316 µM
# [18] = second compound 3 µM, first compound 0.1 µM
# [19] = second compound 3 µM, first compound 0.316 µM
# [20] = second compound 3 µM, first compound 1 µM
compound,measurement,setting,value
COc1c(OCCCN2CCOCC2)ccc2c3n(c(=NC(=O)c4cnc(N)nc4)nc12)CCN3 + CCN1C(C(=O)NC23CCC(C(=O)O)(CC2)CC3)C(c2cccc(Cl)c2F)C2(C(=O)Nc3cc(Cl)ccc32)C12CCCCC2,IC50,second compound 0.03 µM,0.0814 µM
same,IC50,second compound 0.0949 µM,0.0793 µM
same,IC50,second compound 0.3 µM,0.0869 µM
same,IC50,second compound 0.949 µM,0.0908 µM
same,IC50,second compound 3 µM,0.0314 µM
same,"viability, T/C","second compound 0.03 µM, first compound 0.00316 µM",87.7%
same,"viability, T/C","second compound 0.03 µM, first compound 0.01 µM",81.5%
same,"viability, T/C",[1],61.5%
same,"viability, T/C",[2],49.7%
same,"viability, T/C",[3],34.6%
same,"viability, T/C",[4],33.8%
same,"viability, T/C","second compound 0.0949 µM, first compound 0.00316 µM",102%
same,"viability, T/C","second compound 0.0949 µM, first compound 0.01 µM",78.7%
same,"viability, T/C",[5],63.4%
same,"viability, T/C",[6],47.8%
same,"viability, T/C",[7],34.3%
same,"viability, T/C",[8],32.3%
same,"viability, T/C","second compound 0.3 µM, first compound 0.00316 µM",99.3%
same,"viability, T/C","second compound 0.3 µM, first compound 0.01 µM",88.2%
same,"viability, T/C",[9],65.2%
same,"viability, T/C",[10],49.9%
same,"viability, T/C",[11],34.7%
same,"viability, T/C",[12],33.5%
same,"viability, T/C","second compound 0.949 µM, first compound 0.00316 µM",100%
same,"viability, T/C","second compound 0.949 µM, first compound 0.01 µM",85.9%
same,"viability, T/C",[13],66.4%
same,"viability, T/C",[14],49%
same,"viability, T/C",[15],37%
same,"viability, T/C",[16],34.1%
same,"viability, T/C","second compound 3 µM, first compound 0.00316 µM",83.3%
same,"viability, T/C","second compound 3 µM, first compound 0.01 µM",67.6%
same,"viability, T/C",[17],50.1%
same,"viability, T/C",[18],39.3%
same,"viability, T/C",[19],31.2%
same,"viability, T/C",[20],34.1%
CCN1CCN(Cc2ccc(Nc3ncc(F)c(-c4cc(F)c5nc(C)n(C(C)C)c5c4)n3)nc2)CC1 + CNC(C)C(=O)NC1CN(S(=O)(=O)c2cccc(S(=O)(=O)N3CCC4CCC(C(=O)NC(c5ccccc5)c5ccccc5)N4C(=O)C(NC(=O)C(C)NC)C3)c2)CCC2CCC(C(=O)NC(c3ccccc3)c3ccccc3)N2C1=O,IC50,second compound 0.01 µM,< 0.00316 µM
same,IC50,second compound 0.0316 µM,< 0.00316 µM
same,IC50,second compound 0.1 µM,< 0.00316 µM
same,IC50,second compound 0.316 µM,< 0.00316 µM
same,IC50,second compound 1 µM,< 0.00316 µM
same,"viability, T/C","second compound 0.01 µM, first compound 0.00316 µM",2.49%
same,"viability, T/C","second compound 0.01 µM, first compound 0.01 µM",2.43%
same,"viability, T/C","second compound 0.01 µM, first compound 0.0316 µM",2.51%
same,"viability, T/C","second compound 0.01 µM, first compound 0.1 µM",1.88%
same,"viability, T/C","second compound 0.01 µM, first compound 0.316 µM",2.98%
same,"viability, T/C","second compound 0.01 µM, first compound 1 µM",2.28%
same,"viability, T/C","second compound 0.0316 µM, first compound 0.00316 µM",1.93%
same,"viability, T/C","second compound 0.0316 µM, first compound 0.01 µM",1.53%
same,"viability, T/C","second compound 0.0316 µM, first compound 0.0316 µM",1.38%
same,"viability, T/C","second compound 0.0316 µM, first compound 0.1 µM",1.94%
same,"viability, T/C","second compound 0.0316 µM, first compound 0.316 µM",1.87%
same,"viability, T/C","second compound 0.0316 µM, first compound 1 µM",1.71%
same,"viability, T/C","second compound 0.1 µM, first compound 0.00316 µM",1.19%
same,"viability, T/C","second compound 0.1 µM, first compound 0.01 µM",1.19%
same,"viability, T/C","second compound 0.1 µM, first compound 0.0316 µM",1.61%
same,"viability, T/C","second compound 0.1 µM, first compound 0.1 µM",1.32%
same,"viability, T/C","second compound 0.1 µM, first compound 0.316 µM",1.44%
same,"viability, T/C","second compound 0.1 µM, first compound 1 µM",1.16%
same,"viability, T/C","second compound 0.316 µM, first compound 0.00316 µM",0.98%
same,"viability, T/C","second compound 0.316 µM, first compound 0.01 µM",1.26%
same,"viability, T/C","second compound 0.316 µM, first compound 0.0316 µM",1.17%
same,"viability, T/C","second compound 0.316 µM, first compound 0.1 µM",1.28%
same,"viability, T/C","second compound 0.316 µM, first compound 0.316 µM",1.38%
same,"viability, T/C","second compound 0.316 µM, first compound 1 µM",1.15%
same,"viability, T/C","second compound 1 µM, first compound 0.00316 µM",1.1%
same,"viability, T/C","second compound 1 µM, first compound 0.01 µM",0.95%
same,"viability, T/C","second compound 1 µM, first compound 0.0316 µM",1.26%
same,"viability, T/C","second compound 1 µM, first compound 0.1 µM",1.51%
same,"viability, T/C","second compound 1 µM, first compound 0.316 µM",1.22%
same,"viability, T/C","second compound 1 µM, first compound 1 µM",1.35%
NC(=O)C(=Cn1cnc(-c2cc(C(F)(F)F)cc(C(F)(F)F)c2)n1)c1cncnc1 + CCN1C(C(=O)NC23CCC(C(=O)O)(CC2)CC3)C(c2cccc(Cl)c2F)C2(C(=O)Nc3cc(Cl)ccc32)C12CCCCC2,IC50,second compound 0.03 µM,0.0783 µM
same,IC50,second compound 0.0949 µM,0.0705 µM
same,IC50,second compound 0.3 µM,0.0847 µM
same,IC50,second compound 0.949 µM,0.0845 µM
same,IC50,second compound 3 µM,0.0674 µM
same,"viability, T/C","second compound 0.03 µM, first compound 0.000949 µM",103%
same,"viability, T/C","second compound 0.03 µM, first compound 0.003 µM",92.8%
same,"viability, T/C","second compound 0.03 µM, first compound 0.00949 µM",82.4%
same,"viability, T/C","second compound 0.03 µM, first compound 0.03 µM",60%
same,"viability, T/C","second compound 0.03 µM, first compound 0.0949 µM",52.5%
same,"viability, T/C","second compound 0.03 µM, first compound 0.3 µM",23.6%
same,"viability, T/C","second compound 0.0949 µM, first compound 0.000949 µM",111%
same,"viability, T/C","second compound 0.0949 µM, first compound 0.003 µM",103%
same,"viability, T/C","second compound 0.0949 µM, first compound 0.00949 µM",90.4%
same,"viability, T/C","second compound 0.0949 µM, first compound 0.03 µM",62.6%
same,"viability, T/C","second compound 0.0949 µM, first compound 0.0949 µM",47.3%
same,"viability, T/C","second compound 0.0949 µM, first compound 0.3 µM",21.7%
same,"viability, T/C","second compound 0.3 µM, first compound 0.000949 µM",112%
same,"viability, T/C","second compound 0.3 µM, first compound 0.003 µM",102%
same,"viability, T/C","second compound 0.3 µM, first compound 0.00949 µM",87%
same,"viability, T/C","second compound 0.3 µM, first compound 0.03 µM",63.1%
same,"viability, T/C","second compound 0.3 µM, first compound 0.0949 µM",52.5%
same,"viability, T/C","second compound 0.3 µM, first compound 0.3 µM",25%
same,"viability, T/C","second compound 0.949 µM, first compound 0.000949 µM",117%
same,"viability, T/C","second compound 0.949 µM, first compound 0.003 µM",107%
same,"viability, T/C","second compound 0.949 µM, first compound 0.00949 µM",93.4%
same,"viability, T/C","second compound 0.949 µM, first compound 0.03 µM",66.9%
same,"viability, T/C","second compound 0.949 µM, first compound 0.0949 µM",50.4%
same,"viability, T/C","second compound 0.949 µM, first compound 0.3 µM",26.8%
same,"viability, T/C","second compound 3 µM, first compound 0.000949 µM",102%
same,"viability, T/C","second compound 3 µM, first compound 0.003 µM",94.2%
same,"viability, T/C","second compound 3 µM, first compound 0.00949 µM",79.4%
same,"viability, T/C","second compound 3 µM, first compound 0.03 µM",59.9%
same,"viability, T/C","second compound 3 µM, first compound 0.0949 µM",46.9%
same,"viability, T/C","second compound 3 µM, first compound 0.3 µM",31.6%
O=C(c1cc(Cc2n[nH]c(=O)c3ccccc23)ccc1F)N1CCN(C(=O)C2CC2)CC1 + CCN1C(C(=O)NC23CCC(C(=O)O)(CC2)CC3)C(c2cccc(Cl)c2F)C2(C(=O)Nc3cc(Cl)ccc32)C12CCCCC2,IC50,second compound 0.03 µM,> 10 µM
same,IC50,second compound 0.0949 µM,> 10 µM
same,IC50,second compound 0.3 µM,> 10 µM
same,IC50,second compound 0.949 µM,> 10 µM
same,IC50,second compound 3 µM,> 10 µM
same,"viability, T/C",[1],99.1%
same,"viability, T/C",[2],93.9%
same,"viability, T/C",[3],93.8%
same,"viability, T/C",[4],88.2%
same,"viability, T/C","second compound 0.03 µM, first compound 3.16 µM",88.8%
same,"viability, T/C","second compound 0.03 µM, first compound 10 µM",73.8%
same,"viability, T/C",[5],106%
same,"viability, T/C",[6],104%
same,"viability, T/C",[7],98.8%
same,"viability, T/C",[8],99.5%
same,"viability, T/C","second compound 0.0949 µM, first compound 3.16 µM",90.2%
same,"viability, T/C","second compound 0.0949 µM, first compound 10 µM",77.3%
same,"viability, T/C",[9],103%
same,"viability, T/C",[10],103%
same,"viability, T/C",[11],100%
same,"viability, T/C",[12],97.5%
same,"viability, T/C","second compound 0.3 µM, first compound 3.16 µM",93%
same,"viability, T/C","second compound 0.3 µM, first compound 10 µM",80.3%
same,"viability, T/C",[13],102%
same,"viability, T/C",[14],107%
same,"viability, T/C",[15],103%
same,"viability, T/C",[16],101%
same,"viability, T/C","second compound 0.949 µM, first compound 3.16 µM",97.9%
same,"viability, T/C","second compound 0.949 µM, first compound 10 µM",80.7%
same,"viability, T/C",[17],99.1%
same,"viability, T/C",[18],103%
same,"viability, T/C",[19],94.8%
same,"viability, T/C",[20],93.4%
same,"viability, T/C","second compound 3 µM, first compound 3.16 µM",86.7%
same,"viability, T/C","second compound 3 µM, first compound 10 µM",77.8%
